Results on 15 molecules are retold here after the SangsterLogP compilation.

What is called logP is the decadic logarithm of the partition coefficient of the neutral form, usually between octanol and water. Read a low logP as a more hydrophilic compound.

As to `CNC12CCC(CO)CC1Cc1ccccc12` (stereo not given), the logP is 1.41.
`NC12CCCCC1c1ccccc1C2` (stereo not given) returned a logP of 2.94.
The value for `CNC12CCCCC1Cc1cc(OC)ccc12` (stereo not given) was 3.51; that for `NC12CCC(CO)CC1Cc1ccccc12` (stereo not given) was 0.93; that for `NC12CCCC1Cc1ccccc12` (stereo not given) was 2.58.
`CNC12CCCCC1Cc1ccccc12` (stereo not given) showed a lipophilicity (logP) of 3.37.
As for `CNCC1CCC2(NC)c3ccccc3CC2C1` (stereo not given), the log partition coefficient (logP) came out at 2.48.
Next, `CCNC12c3ccccc3CC1CCCC2C` (stereo not given): 3.8; `CNC12CCCCCC1Cc1ccccc12` (stereo not given): 3.77.
`C=C1c2ccccc2C2(NC)CCCCC12` (stereo not given) had a logP of 3.79. This logP and that of the molecule before are within 0.2 log units of each other.
The value for `CNC12CC=CCC1c1ccccc1C2` (stereo not given) was 3.28; that for `CNC12CCC(CN)CC1Cc1ccccc12` (stereo not given) was 1.84; that for `CNC12c3ccccc3CC1CCCC2C` (stereo not given) was 3.44.
Next, `CNC12CCCCC1c1ccccc1C2` (stereo not given): 3.43; `CNC12CCCCC1Cc1ccc(OC)cc12` (stereo not given): 3.54.
